Data taken from ChEMBL document CHEMBL4507291 (2021).

Assays:
Rattus norvegicus = organism: Rattus norvegicus; assay: Inhibition of Glutamate, NMDA, Phencyclidine at 10 µM in the Eurofins-Panlabs radioligand binding assay (Eurofins_assay_233000); format: protein-complex assay; conditions: Compound concentration 10.0 uM
[1] = target: T1, Inhibitor of nuclear factor kappa-B kinase subunit alpha (Homo sapiens) (UniProt O15111); assay: CHUK (IKK alpha) Kinase screen; conditions: Compound concentration 1.0 uM
T1 sequence (whole entry): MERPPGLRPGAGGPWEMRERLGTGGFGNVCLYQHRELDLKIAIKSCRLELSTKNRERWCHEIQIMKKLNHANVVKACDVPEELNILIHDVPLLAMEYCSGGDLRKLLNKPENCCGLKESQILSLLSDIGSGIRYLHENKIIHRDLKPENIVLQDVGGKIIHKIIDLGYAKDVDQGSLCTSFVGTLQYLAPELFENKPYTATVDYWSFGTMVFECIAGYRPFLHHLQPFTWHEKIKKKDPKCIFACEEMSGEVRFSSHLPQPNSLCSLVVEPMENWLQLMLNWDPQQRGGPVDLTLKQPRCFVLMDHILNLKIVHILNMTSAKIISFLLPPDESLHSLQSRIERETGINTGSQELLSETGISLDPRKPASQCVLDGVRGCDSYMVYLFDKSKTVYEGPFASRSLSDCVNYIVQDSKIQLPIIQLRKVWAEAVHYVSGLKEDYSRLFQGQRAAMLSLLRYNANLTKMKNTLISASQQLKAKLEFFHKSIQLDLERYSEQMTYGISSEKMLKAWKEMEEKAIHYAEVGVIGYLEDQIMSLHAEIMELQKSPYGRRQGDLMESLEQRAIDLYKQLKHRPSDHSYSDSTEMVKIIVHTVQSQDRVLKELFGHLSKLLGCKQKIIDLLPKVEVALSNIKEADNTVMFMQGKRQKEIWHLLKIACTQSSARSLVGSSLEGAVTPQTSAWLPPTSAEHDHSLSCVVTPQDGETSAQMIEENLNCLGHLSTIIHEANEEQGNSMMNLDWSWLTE

[2] = target: Dual specificity tyrosine-phosphorylation-regulated kinase 1B (Homo sapiens) (UniProt Q9Y463); assay: DYRK1B Kinase screen; conditions: Compound concentration 1.0 uM
[3] = target: Tyrosine-protein kinase HCK (Homo sapiens) (UniProt P08631); assay: HCK Kinase screen; conditions: Compound concentration 1.0 uM
Tyrosine-protein kinase HCK (Homo sapiens), sequence (P08631 2-526 limits assumed): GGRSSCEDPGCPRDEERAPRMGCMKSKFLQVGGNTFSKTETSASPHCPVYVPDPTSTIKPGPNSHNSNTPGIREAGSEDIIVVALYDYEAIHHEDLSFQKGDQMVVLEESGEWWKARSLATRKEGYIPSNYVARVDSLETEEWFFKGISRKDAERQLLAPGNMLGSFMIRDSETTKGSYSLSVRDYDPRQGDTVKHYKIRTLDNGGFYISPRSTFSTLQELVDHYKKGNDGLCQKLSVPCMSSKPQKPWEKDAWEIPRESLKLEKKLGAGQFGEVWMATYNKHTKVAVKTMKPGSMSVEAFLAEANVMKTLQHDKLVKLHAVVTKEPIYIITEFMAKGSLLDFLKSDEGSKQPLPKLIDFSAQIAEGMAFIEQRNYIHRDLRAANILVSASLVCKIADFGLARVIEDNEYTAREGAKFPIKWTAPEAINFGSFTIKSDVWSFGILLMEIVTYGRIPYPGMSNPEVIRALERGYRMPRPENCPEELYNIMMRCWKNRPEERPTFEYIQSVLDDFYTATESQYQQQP

[4] = target: Dual specificity mitogen-activated protein kinase kinase 2 (Homo sapiens) (UniProt P36507); assay: MAP2K2 (MEK2) Kinase screen; conditions: Compound concentration 1.0 uM
[5] = tested on: Hepatocyte growth factor receptor (Homo sapiens), P08581 [M1250T]; assay: MET M1250T Kinase screen; conditions: Compound concentration 1.0 uM
[6] = target: Serine/threonine-protein kinase PAK 5 (Homo sapiens) (UniProt Q9P286); assay: PAK7 (KIAA1264) Kinase screen; conditions: Compound concentration 1.0 uM
Serine/threonine-protein kinase PAK 5 (Homo sapiens), sequence (Q9P286 whole entry, looked up): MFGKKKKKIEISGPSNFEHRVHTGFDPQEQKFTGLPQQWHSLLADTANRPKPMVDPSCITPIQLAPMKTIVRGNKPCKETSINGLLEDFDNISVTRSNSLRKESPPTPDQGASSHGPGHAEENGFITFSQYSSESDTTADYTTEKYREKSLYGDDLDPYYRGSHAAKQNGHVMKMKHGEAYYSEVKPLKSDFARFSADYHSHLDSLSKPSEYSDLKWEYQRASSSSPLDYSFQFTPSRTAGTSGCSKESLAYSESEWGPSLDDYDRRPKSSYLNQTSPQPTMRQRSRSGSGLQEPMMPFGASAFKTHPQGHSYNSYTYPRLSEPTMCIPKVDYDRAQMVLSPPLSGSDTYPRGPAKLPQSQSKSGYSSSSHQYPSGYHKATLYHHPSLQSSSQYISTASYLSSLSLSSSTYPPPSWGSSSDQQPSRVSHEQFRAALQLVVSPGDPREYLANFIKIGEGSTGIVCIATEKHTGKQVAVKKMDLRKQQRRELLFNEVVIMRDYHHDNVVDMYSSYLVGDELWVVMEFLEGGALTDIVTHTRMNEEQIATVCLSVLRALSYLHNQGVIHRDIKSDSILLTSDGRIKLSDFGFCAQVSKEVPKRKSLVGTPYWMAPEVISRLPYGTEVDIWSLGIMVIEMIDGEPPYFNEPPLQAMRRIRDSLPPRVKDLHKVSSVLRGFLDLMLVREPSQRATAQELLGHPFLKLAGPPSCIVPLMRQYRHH

[7] = target: Platelet-derived growth factor receptor alpha (Homo sapiens) (UniProt P16234); assay: PDGFRA (PDGFR alpha) Kinase screen; conditions: Compound concentration 1.0 uM
[8] = target: Serine/threonine-protein kinase N1 (Homo sapiens) (UniProt Q16512); assay: PKN1 (PRK1) Kinase screen; conditions: Compound concentration 1.0 uM
[9] = target: T2, cAMP-dependent protein kinase catalytic subunit PRKX (Homo sapiens) (UniProt P51817); assay: PRKX Kinase screen; conditions: Compound concentration 1.0 uM
T2 sequence (whole entry): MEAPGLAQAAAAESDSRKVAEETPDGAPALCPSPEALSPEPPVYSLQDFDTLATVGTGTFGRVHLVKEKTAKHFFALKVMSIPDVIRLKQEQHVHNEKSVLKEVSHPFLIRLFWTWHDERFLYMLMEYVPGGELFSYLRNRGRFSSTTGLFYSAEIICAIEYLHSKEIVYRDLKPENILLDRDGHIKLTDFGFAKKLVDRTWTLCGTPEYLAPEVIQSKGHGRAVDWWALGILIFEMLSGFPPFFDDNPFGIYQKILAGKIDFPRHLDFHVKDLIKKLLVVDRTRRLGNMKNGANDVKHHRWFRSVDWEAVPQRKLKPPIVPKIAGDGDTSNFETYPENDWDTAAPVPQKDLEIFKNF

[10] = target: STE20-like serine/threonine-protein kinase (Homo sapiens) (UniProt Q9H2G2); assay: SLK Kinase screen; conditions: Compound concentration 1.0 uM
STE20-like serine/threonine-protein kinase (Homo sapiens), sequence (Q9H2G2 whole entry, looked up): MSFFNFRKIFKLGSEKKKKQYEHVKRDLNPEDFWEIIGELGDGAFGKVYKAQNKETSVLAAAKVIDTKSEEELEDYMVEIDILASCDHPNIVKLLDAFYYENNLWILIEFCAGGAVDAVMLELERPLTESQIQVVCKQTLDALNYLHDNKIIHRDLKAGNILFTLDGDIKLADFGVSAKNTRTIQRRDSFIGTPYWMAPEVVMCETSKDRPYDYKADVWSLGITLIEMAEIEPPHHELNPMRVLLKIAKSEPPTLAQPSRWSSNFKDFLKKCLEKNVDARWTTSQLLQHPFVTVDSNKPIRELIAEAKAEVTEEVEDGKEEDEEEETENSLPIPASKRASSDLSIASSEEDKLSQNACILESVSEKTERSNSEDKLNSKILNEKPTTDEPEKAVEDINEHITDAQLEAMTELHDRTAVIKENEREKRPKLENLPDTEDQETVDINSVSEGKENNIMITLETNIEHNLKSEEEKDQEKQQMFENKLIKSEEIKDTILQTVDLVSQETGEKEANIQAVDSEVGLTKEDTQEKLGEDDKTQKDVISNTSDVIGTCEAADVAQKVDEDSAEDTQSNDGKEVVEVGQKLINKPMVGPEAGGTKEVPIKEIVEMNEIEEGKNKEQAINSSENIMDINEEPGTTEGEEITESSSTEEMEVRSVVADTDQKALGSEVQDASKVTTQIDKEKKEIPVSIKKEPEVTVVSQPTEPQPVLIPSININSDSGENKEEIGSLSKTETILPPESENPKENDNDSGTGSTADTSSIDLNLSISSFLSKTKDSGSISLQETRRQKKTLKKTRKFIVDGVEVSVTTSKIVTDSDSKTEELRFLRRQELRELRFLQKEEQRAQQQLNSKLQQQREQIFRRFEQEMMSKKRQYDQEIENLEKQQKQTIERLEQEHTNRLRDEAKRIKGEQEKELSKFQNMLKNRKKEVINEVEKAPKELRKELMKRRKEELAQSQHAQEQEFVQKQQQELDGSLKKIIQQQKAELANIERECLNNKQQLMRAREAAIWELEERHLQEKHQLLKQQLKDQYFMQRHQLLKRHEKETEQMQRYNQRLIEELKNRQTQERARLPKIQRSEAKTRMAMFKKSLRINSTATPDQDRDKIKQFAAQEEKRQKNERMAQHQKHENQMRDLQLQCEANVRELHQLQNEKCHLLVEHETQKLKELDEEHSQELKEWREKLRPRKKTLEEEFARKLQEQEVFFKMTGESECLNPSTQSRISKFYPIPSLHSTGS

[11] = target: Serine/threonine-protein kinase SIK2 (Homo sapiens) (UniProt Q9H0K1); assay: SNF1LK2 Kinase screen; conditions: Compound concentration 1.0 uM
[12] = target: Serine/threonine-protein kinase 24 (Homo sapiens) (UniProt Q9Y6E0); assay: STK24 (MST3) Kinase screen; conditions: Compound concentration 1.0 uM
[13] = target: T3, Dual specificity protein kinase TTK (Homo sapiens) (UniProt P33981); assay: TTK Kinase screen; conditions: Compound concentration 1.0 uM
T3 sequence (whole entry): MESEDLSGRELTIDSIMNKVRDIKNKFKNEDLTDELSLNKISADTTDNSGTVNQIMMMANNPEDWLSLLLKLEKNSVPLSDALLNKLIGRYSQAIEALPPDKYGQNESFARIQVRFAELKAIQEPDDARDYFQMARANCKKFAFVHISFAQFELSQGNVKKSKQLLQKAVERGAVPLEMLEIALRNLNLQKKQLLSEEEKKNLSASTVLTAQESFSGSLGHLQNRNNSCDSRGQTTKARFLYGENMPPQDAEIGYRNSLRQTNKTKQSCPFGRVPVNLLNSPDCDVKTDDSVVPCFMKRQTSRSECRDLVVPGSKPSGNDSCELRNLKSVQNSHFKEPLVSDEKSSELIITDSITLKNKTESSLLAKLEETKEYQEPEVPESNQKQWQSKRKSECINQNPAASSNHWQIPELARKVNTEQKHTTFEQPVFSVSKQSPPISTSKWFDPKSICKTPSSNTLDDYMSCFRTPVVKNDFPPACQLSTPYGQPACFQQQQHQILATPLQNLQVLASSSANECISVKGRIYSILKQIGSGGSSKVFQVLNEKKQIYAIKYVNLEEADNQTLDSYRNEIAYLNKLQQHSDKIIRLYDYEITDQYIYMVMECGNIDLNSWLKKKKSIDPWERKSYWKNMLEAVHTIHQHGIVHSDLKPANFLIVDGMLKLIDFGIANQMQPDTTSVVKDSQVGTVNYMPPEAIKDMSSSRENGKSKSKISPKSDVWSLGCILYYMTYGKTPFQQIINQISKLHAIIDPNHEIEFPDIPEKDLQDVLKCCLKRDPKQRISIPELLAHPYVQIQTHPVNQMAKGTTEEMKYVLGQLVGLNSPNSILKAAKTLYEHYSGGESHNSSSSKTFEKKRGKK

[14] = target: Serine/threonine-protein kinase WNK2 (Homo sapiens) (UniProt Q9Y3S1); assay: WNK2 Kinase screen; conditions: Compound concentration 1.0 uM
Serine/threonine-protein kinase WNK2 (Homo sapiens), sequence (Q9Y3S1 whole entry): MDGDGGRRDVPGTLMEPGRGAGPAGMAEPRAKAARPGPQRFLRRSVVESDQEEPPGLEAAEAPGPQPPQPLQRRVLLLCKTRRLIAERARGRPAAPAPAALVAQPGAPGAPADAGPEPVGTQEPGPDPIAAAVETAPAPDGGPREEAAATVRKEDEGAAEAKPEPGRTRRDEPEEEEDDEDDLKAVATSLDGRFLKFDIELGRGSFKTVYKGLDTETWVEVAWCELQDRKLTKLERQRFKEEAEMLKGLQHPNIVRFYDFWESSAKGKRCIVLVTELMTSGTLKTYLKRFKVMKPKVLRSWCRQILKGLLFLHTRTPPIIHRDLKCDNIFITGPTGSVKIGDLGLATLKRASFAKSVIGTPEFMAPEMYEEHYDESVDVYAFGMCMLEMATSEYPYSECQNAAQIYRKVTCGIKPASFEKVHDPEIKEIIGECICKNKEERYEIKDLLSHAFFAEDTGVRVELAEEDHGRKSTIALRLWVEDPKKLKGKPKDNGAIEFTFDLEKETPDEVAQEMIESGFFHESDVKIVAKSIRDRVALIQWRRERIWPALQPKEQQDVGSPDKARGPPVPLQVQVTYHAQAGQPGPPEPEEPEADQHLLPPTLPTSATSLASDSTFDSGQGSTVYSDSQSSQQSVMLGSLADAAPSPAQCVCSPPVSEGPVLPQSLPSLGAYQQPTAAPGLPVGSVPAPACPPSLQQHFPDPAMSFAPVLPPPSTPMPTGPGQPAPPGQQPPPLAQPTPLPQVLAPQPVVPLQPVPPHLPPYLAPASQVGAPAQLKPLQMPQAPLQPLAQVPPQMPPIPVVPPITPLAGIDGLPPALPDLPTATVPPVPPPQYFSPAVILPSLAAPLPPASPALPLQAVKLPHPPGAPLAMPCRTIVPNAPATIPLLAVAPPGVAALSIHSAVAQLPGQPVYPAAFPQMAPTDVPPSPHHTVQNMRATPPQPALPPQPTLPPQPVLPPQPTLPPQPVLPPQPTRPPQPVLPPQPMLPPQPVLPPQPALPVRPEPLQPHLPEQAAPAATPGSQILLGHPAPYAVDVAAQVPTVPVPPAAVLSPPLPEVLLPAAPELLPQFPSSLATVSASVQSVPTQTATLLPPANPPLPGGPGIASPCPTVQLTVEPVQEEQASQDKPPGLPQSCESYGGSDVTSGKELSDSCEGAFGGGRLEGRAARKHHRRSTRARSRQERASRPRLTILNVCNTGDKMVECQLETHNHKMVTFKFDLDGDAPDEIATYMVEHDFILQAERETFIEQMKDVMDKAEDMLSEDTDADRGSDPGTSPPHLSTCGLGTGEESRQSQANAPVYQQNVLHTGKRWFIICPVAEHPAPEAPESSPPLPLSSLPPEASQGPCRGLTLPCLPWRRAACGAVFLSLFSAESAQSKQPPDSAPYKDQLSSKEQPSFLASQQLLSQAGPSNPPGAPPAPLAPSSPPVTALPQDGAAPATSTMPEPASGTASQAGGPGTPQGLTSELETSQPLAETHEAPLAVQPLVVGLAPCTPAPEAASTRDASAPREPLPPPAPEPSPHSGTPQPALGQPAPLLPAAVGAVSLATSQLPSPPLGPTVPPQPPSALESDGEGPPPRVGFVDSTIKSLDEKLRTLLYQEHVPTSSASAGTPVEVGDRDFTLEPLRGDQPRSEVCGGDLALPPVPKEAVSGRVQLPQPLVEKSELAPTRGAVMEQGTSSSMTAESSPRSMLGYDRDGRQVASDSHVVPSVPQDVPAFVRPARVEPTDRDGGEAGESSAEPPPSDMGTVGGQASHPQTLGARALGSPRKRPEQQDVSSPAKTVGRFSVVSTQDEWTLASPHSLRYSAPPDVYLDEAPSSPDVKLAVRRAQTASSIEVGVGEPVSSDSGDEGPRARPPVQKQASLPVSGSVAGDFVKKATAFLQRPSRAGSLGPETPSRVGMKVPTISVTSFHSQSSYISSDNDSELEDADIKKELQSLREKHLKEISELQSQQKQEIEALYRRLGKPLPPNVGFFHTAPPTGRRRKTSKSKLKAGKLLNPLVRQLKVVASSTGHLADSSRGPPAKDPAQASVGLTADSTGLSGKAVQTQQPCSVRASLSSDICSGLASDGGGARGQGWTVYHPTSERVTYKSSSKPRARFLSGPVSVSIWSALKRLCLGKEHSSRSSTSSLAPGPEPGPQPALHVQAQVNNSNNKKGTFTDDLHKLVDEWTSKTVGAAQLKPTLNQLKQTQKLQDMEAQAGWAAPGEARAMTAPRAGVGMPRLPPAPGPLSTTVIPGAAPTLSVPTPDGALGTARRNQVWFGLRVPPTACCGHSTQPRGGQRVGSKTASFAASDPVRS

Homo sapiens = organism: Homo sapiens; assay: Glutamate, Metabotropic, mGlu5 Eurofins-Panlabs radioligand binding assay; conditions: Compound concentration 10.0 uM

Measured: inhibition

C[C@@H]1CN(c2cc(-c3n[nH]c4ccc(OC5(C)CC5)cc34)ncn2)C[C@H](C)O1 [MLi-2]
inactive: Rattus norvegicus -1% | [1] 8.17% | [2] 1.77% | [3] 7.67% | [4] 20.3% | [5] 2.2% | [6] 5.96% | [7] 0.395% | [8] 1.46% | [9] 1.54% | [10] 1.5% | [11] 7.08% | [12] 7.34% | [13] 56.5% | [14] -1.69% | Homo sapiens 0%
